Reference: PubChem BioAssay AID248 (DTP/NCI, 2004)
Inconclusive results and toxic doses are left out. Rule as the data show it: active = T/C of 150% or more; inactive = T/C below 125%.

System: L1210 leukemia ip in BDF1 mice, survival T/C
Experiment: NCI In Vivo Anticancer Drug Screen. Data for tumor model L1210 Leukemia (intraperitoneal) in B6D2F1 (BDF1) mice
Conditions: endpoint: mean survival time, higher = longer survival
Method in brief: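 Each compound was tested against a transplantable tumor grown in mice. The endpoint was survival, with treated animals benchmarked against vehicle controls as a simple ratio.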

[1] = dose: 100.0 mg/kg/injection, schedule: Q01DX009 (ip), vehicle: Klucel (hydroxypropylcellulose) (HPC)
[2] = dose: 200.0 mg/kg/injection, schedule: Q01DX009 (ip), vehicle: Klucel (hydroxypropylcellulose) (HPC)
[3] = dose: 400.0 mg/kg/injection, schedule: Q01DX009 (ip), vehicle: Klucel (hydroxypropylcellulose) (HPC)

Measured: T/C

COC(=O)C1CCCC23CC(CC12)C(C)(C)C3Br (configuration not stated)
inactive: [1] 94 % of control | dose: 100.0 mg/kg/injection, schedule: Q04DX003 (ip), vehicle: Klucel (hydroxypropylcellulose) (HPC) 97 % of control | [2] 97 % of control | dose: 200.0 mg/kg/injection, schedule: Q04DX003 (ip), vehicle: Klucel (hydroxypropylcellulose) (HPC) 90 % of control | [3] 90 % of control | dose: 400.0 mg/kg/injection, schedule: Q04DX003 (ip), vehicle: Klucel (hydroxypropylcellulose) (HPC) 97 % of control

COc1ccccc1OCC(=O)N1CCCC1
inactive: dose: 100.0 mg/kg/injection, schedule: Q04DX002 (ip), vehicle: Klucel (hydroxypropylcellulose) (HPC) 98 % of control | dose: 200.0 mg/kg/injection, schedule: Q04DX002 (ip), vehicle: Klucel (hydroxypropylcellulose) (HPC) 98 % of control | dose: 400.0 mg/kg/injection, schedule: Q04DX002 (ip), vehicle: Klucel (hydroxypropylcellulose) (HPC) 117 % of control

O=C1OC(=O)C2(Br)C3C=CC(CC3)C12Br (configuration not stated)
inactive: dose: 100.0 mg/kg/injection, schedule: Q04DX003 (ip), vehicle: saline with Tween-80 93 % of control | dose: 200.0 mg/kg/injection, schedule: Q04DX003 (ip), vehicle: saline with Tween-80 96 % of control | dose: 400.0 mg/kg/injection, schedule: Q04DX003 (ip), vehicle: saline with Tween-80 98 % of control

O=C1C(O)=C(Cl)C(=O)C(OC2=C(Cl)C(=O)C(OC3=C(Cl)C(=O)C(OC4=C(Cl)C(=O)C(Cl)=C(Cl)C4=O)=C(Cl)C3=O)=C(Cl)C2=O)=C1Cl
inactive: dose: 100.0 mg/kg/injection, schedule: Q04DX003 (ip), vehicle: saline 97 % of control | dose: 200.0 mg/kg/injection, schedule: Q04DX003 (ip), vehicle: saline 105 % of control

C=C1C=C(C)N(C(=O)c2ccc(Cl)cc2)CCN1C(=O)c1ccc(Cl)cc1
inactive: [1] 100 % of control | [2] 90 % of control | [3] 92 % of control
